Test results as given in ChEMBL document CHEMBL4359920 (Eur J Med Chem, 2019).

Columns and labels:
[1] = biological target: T1, Protein deacetylase HDAC6 (Homo sapiens, UniProt Q9UBN7); assay: Inhibition of recombinant human HDAC6 using Ac-peptide-AMC as substrate preincubated for 15 mins followed by substrate addition and measured after 60 mins by fluorescence based assay; conditions: for inhibition (INH): human, 1 h
T1 sequence (Q9UBN7 whole entry): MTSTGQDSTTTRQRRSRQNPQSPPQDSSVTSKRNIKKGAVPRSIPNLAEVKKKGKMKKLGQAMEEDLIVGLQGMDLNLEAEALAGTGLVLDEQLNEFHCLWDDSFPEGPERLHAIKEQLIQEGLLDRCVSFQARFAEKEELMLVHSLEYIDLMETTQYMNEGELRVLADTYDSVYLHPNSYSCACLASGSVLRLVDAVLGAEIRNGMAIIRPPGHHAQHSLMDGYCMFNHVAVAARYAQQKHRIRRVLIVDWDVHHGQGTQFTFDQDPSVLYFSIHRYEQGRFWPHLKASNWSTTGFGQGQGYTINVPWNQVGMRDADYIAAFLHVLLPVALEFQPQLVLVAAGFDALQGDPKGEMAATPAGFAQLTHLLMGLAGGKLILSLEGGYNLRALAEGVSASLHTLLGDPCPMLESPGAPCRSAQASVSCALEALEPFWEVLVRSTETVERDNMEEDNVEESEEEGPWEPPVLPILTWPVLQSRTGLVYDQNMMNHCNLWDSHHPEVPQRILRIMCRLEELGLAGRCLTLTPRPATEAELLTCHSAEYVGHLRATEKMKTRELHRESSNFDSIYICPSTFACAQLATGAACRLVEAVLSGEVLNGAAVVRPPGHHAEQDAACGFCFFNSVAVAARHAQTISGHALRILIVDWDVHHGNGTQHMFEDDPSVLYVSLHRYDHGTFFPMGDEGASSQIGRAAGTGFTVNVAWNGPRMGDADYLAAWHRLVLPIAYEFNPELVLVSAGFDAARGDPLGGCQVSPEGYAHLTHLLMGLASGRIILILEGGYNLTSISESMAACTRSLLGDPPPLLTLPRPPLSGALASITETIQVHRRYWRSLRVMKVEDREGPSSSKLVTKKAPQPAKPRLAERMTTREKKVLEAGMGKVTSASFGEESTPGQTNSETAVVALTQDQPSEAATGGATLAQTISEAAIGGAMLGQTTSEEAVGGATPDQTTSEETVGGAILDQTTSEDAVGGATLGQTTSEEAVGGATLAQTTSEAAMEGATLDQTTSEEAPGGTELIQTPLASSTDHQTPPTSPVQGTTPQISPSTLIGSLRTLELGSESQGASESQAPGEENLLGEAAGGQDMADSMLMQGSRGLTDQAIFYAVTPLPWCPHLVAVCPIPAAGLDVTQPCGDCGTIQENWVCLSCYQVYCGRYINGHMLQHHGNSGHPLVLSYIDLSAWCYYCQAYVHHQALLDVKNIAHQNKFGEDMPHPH

SK-OV-3 = assay: Antiproliferative activity against human SKOV3 cells assessed as reduction in cell viability after 72 hrs by MTT assay; assay type: functional, cell-based; conditions: SK-OV-3, 72 h
MDA-MB-231 = assay: Antiproliferative activity against human MDA-MB-231 cells assessed as reduction in cell viability after 72 hrs by MTT assay; assay type: functional, cell-based; conditions: MDA-MB-231, 72 h
A549 = assay: Antiproliferative activity against human A549 cells assessed as reduction in cell viability after 72 hrs by MTT assay; assay type: functional, cell-based; conditions: A549, 72 h
HCT-116 = assay: Antiproliferative activity against human HCT116 cells assessed as reduction in cell viability after 72 hrs by MTT assay; assay type: functional, cell-based; conditions: HCT-116, 72 h
[2] = biological target: Histone deacetylase (Homo sapiens) (UniProt Q13547+O15379+Q9UBN7+Q92769+Q9UQL6+Q8WUI4+Q9BY41+Q96DB2+P56524+Q9UKV0+Q969S8); assay: Inhibition of HDAC in human HCT116 cells assessed as increase in histone H3 acetylation after 24 hrs by Western blot analysis; assay type: cell-based
[3] = biological target: T1, Protein deacetylase HDAC6; assay: Inhibition of HDAC6 in human HCT116 cells assessed as alpha tubulin acetylation at 0.1 to 10000 nM after 24 hrs by Western blot analysis; assay type: cell-based; conditions: 10 µM
Histone deacetylase 2 = Histone deacetylase 2 (Homo sapiens, UniProt Q92769); assay: biochemical; assay type: cell-based, Sf9
Description: Inhibition of recombinant full length human HDAC2 expressed in baculovirus infected Sf9 cells using Ac-peptide-AMC as substrate preincubated for 15 mins followed by substrate addition and measured after 60 mins by fluorescence based assay

Histone deacetylase 8 = biological target: T2, Histone deacetylase 8 (Homo sapiens, UniProt Q9BY41); assay: Inhibition of full length C-terminal His-tagged human HDAC8 expressed in baculovirus infected Sf9 cells using Ac-peptide-AMC as substrate preincubated for 15 mins followed by substrate addition and measured after 240 mins by fluorescence based assay
T2 sequence (Q9BY41 whole entry): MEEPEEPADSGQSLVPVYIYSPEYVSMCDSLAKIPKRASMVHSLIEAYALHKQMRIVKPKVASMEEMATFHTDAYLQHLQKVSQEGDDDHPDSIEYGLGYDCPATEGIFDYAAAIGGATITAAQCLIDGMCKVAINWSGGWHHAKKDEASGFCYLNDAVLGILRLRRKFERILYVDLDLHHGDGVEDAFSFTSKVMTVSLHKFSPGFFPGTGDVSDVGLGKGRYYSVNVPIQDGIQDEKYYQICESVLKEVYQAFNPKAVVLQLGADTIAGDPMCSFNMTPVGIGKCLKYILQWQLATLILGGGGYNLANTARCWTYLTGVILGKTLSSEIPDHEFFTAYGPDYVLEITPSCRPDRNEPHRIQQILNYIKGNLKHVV

Histone deacetylase 1 = Histone deacetylase 1 (Homo sapiens, UniProt Q13547); assay: (§1) Inhibition of recombinant full length C-terminal FLAG/His-tagged human HDAC1 expressed in baculovirus infected Sf9 cells using Ac-peptide-AMC as substrate preincubated for 15 mins followed by substrate addition and measured after 60 mins by fluorescence based assay
[4] = biological target: Histone deacetylase 3/Nuclear receptor corepressor 2 (HDAC3/NCoR2) (Homo sapiens, UniProt O15379); assay: as §1, with “of human” for “of”, “His-tagged HDAC3 (1 to 428 residues)/N-terminal GST-tagged NCOR2 (395 to 489 residues)” for “FLAG/His-tagged human HDAC1”
Homo sapiens [5] = species on record: Homo sapiens; assay: Selectivity ratio of IC50 for inhibition of human recombinant full length C-terminal His-tagged HDAC3 (1 to 428 residues)/N-terminal GST-tagged NCOR2 (395 to 489 residues) expressed in baculovirus infected Sf9 cells to IC50 for inhibition recombinant full length C-terminal FLAG/His-tagged human HDAC1 expressed in baculovirus infected Sf9 cells
Homo sapiens [6] = species on record: Homo sapiens; assay: Selectivity ratio of IC50 for inhibition of recombinant full length human HDAC2 expressed in baculovirus infected Sf9 cells to IC50 for inhibition of recombinant full length C-terminal FLAG/His-tagged human HDAC1 expressed in baculovirus infected Sf9 cells

Histone deacetylase 2, sequence (Q92769 whole entry): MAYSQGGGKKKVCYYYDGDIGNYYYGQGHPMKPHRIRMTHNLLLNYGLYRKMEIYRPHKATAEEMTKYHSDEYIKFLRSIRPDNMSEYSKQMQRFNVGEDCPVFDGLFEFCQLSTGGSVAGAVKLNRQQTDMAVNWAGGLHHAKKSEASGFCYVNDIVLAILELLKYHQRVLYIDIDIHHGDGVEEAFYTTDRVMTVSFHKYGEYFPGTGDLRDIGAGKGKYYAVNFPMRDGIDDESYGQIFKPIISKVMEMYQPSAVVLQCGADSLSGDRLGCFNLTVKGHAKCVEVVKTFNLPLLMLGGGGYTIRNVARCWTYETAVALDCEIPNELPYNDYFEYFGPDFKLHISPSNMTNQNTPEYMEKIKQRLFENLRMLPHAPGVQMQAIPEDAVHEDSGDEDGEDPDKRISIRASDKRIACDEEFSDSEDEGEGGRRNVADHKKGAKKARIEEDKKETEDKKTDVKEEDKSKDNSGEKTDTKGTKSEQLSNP
Histone deacetylase 1, sequence (Q13547 whole entry, the tested form may be a part): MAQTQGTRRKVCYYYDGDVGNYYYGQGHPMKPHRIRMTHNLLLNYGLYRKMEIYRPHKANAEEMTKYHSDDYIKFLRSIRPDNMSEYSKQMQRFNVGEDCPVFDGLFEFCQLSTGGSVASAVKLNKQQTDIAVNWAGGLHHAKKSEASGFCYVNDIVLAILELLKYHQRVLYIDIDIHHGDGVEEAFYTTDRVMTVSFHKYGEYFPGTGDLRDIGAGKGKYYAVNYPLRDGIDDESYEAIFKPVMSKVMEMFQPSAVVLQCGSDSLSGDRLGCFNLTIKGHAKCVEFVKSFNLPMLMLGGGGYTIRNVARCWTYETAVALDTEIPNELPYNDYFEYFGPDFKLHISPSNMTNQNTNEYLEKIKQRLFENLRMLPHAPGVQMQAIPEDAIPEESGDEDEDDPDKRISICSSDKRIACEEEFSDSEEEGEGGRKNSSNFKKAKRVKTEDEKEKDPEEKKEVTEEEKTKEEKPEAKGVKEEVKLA
Histone deacetylase 3/Nuclear receptor corepressor 2 (HDAC3/NCoR2), sequence (O15379 whole entry, the tested form may be a part): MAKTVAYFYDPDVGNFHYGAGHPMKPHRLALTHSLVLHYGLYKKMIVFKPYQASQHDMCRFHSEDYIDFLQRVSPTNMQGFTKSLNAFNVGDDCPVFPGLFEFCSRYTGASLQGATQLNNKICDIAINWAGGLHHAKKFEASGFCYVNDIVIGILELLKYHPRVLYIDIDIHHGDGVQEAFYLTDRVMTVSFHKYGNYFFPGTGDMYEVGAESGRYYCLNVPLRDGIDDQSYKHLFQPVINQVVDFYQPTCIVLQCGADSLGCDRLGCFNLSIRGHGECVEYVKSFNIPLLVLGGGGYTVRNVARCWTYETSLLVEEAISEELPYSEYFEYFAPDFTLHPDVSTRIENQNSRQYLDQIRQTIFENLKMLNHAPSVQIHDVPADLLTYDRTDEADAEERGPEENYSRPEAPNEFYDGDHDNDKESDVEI
Histone deacetylase 3/Nuclear receptor corepressor 2 (HDAC3/NCoR2), sequence (Q9Y618 whole entry, further chain, the tested form may be a part): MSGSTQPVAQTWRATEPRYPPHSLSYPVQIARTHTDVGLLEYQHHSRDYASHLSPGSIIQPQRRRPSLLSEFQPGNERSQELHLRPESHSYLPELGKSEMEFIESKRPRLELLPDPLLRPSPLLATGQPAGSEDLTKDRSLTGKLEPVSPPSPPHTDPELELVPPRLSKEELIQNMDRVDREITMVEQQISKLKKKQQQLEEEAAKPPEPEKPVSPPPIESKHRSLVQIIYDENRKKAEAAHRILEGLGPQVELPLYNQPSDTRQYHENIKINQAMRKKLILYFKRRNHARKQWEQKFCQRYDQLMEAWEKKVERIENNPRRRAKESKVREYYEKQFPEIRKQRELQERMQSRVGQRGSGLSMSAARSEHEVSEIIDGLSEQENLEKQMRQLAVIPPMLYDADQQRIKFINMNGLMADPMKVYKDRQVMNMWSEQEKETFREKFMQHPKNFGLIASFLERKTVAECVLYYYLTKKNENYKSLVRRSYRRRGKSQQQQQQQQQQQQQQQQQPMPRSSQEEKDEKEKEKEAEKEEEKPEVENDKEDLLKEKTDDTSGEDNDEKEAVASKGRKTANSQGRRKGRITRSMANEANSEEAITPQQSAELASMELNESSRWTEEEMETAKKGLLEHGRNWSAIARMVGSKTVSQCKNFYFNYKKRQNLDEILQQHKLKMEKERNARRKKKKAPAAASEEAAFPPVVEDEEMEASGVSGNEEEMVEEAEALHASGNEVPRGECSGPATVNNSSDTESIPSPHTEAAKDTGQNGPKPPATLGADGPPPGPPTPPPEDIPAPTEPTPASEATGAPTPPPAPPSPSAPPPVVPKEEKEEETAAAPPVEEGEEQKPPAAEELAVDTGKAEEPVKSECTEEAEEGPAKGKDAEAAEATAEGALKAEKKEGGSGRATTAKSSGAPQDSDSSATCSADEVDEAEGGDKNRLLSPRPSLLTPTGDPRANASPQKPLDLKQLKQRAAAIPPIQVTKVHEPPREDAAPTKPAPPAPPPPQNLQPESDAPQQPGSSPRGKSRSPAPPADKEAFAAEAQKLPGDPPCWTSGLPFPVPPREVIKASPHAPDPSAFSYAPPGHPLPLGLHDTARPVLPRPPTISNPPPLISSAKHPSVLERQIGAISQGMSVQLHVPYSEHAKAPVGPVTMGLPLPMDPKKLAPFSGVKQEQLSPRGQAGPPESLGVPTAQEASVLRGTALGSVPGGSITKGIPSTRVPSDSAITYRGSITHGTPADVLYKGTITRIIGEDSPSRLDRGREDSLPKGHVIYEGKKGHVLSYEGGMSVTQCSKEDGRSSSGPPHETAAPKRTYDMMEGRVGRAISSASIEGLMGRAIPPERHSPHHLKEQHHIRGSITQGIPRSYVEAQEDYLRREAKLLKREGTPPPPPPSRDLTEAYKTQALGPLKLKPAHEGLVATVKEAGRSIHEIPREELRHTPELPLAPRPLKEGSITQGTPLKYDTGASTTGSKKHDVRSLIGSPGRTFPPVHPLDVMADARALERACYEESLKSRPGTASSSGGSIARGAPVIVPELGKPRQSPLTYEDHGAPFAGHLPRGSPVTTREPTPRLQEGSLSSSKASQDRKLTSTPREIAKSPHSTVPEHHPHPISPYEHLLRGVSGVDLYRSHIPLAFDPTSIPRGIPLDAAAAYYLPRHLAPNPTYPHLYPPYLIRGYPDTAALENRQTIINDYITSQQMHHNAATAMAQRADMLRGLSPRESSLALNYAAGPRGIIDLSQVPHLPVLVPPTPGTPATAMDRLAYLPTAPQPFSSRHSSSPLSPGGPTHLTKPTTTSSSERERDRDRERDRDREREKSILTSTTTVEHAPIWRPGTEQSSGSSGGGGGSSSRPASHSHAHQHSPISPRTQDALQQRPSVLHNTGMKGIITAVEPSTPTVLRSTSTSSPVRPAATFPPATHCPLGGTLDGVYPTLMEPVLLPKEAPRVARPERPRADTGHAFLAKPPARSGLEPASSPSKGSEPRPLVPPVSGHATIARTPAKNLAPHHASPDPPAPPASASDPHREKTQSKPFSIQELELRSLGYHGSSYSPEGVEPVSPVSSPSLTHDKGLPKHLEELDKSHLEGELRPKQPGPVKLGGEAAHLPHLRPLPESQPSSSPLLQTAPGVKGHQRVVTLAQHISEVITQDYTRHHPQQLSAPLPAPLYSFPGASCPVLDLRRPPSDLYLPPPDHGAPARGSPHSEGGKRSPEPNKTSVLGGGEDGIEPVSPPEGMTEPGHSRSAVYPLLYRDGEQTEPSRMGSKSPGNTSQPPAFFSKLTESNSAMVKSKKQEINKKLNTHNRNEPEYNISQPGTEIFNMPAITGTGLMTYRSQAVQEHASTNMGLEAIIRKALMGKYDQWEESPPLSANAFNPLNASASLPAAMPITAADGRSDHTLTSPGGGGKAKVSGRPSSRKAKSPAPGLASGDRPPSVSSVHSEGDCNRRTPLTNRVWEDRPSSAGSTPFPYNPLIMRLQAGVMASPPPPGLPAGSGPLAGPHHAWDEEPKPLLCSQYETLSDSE

Row | SMILES | inhibition (INH) [1] | IC50 (SK-OV-3) [nM] | IC50 (MDA-MB-231) [nM] | IC50 (A549) [nM] | IC50 (HCT-116) [nM] | IC50 [1] [nM] | IC50 (Histone deacetylase 2) [nM] | IC50 (Histone deacetylase 8) [nM] | IC50 (Histone deacetylase 1) [nM] | IC50 [4] [nM] | further results
1 | CC(C)[C@@H]1NC(=O)[C@]2(C)CSC(=N2)c2csc(n2)CNC(=O)C[C@@H](/C=C/CCS)OC1=O | Dose-dependent effect | – | – | – | – | – | – | – | – | – | –
2 | CCCCCCCC(=O)SCC(F)(F)/C=C/[C@@H]1CC(=O)NCc2nc(cs2)C2=N[C@@](C)(CS2)C(=O)N[C@@H](C(C)C)C(=O)O1 | – | > 10000 | > 10000 | > 10000 | > 10000 | – | – | – | – | – | –
3 | CCCCCCCC(=O)SCC/C(F)=C/[C@@H]1CC(=O)NCc2nc(cs2)C2=N[C@@](C)(CS2)C(=O)N[C@@H](C(C)C)C(=O)O1 | – | 260 | 4110 | 170 | 170 | – | – | – | – | – | inhibition [2]: Dose-dependent effect; inhibition (INH) [3]: Not Active
4 | CC(C)[C@@H]1NC(=O)[C@]2(C)CSC(=N2)c2csc(n2)CNC(=O)C(F)(F)[C@@H](/C=C/CCS)NC1=O | Dose-dependent effect | – | – | – | – | 1410 | 9.25 | 166 | 6.31 | 7.43 | –
5 | CC(C)[C@@H]1NC(=O)[C@]2(C)CSC(=N2)c2csc(n2)CNC(=O)C[C@H](/C(F)=C/CCS)OC1=O | Dose-dependent effect | – | – | – | – | 1830 | 95.5 | 378 | 78.5 | 51.4 | –
6 | O=C(CCCCCCC(=O)Nc1ccccc1)NO [VORINOSTAT] | Dose-dependent effect | – | – | – | – | – | – | – | – | – | –
7 | CCCCCCCC(=O)SCC/C=C(\F)[C@H]1CC(=O)NCc2nc(cs2)C2=N[C@@](C)(CS2)C(=O)N[C@@H](C(C)C)C(=O)O1 | – | > 10000 | > 10000 | > 10000 | > 10000 | – | – | – | – | – | –
8 | CC(C)[C@@H]1NC(=O)[C@]2(C)CSC(=N2)c2csc(n2)CNC(=O)C[C@@H](/C=C/C(F)(F)CS)OC1=O | Dose-dependent effect | – | – | – | – | 898 | 18.5 | 44.1 | 11.9 | 8.21 | Ratio IC50 (Homo sapiens [5]): 79; Ratio IC50 (Homo sapiens [6]): 79
9 | CCCCCCCC(=O)SCC/C=C(\F)[C@@H]1CC(=O)NCc2nc(cs2)C2=N[C@@](C)(CS2)C(=O)N[C@@H](C(C)C)C(=O)N1 | – | > 10000 | > 10000 | > 10000 | 6620 | – | – | – | – | – | –
10 | CCCCCCCC(=O)SCC/C=C(\F)[C@@H]1CC(=O)NCc2nc(cs2)C2=N[C@@](C)(CS2)C(=O)N[C@@H](C(C)C)C(=O)O1 | Dose-dependent effect | 240 | 3850 | 520 | 810 | > 5000 | – | – | – | 2300 | –
11 | CC(C)[C@@H]1NC(=O)[C@]2(C)CSC(=N2)c2csc(n2)CNC(=O)C[C@@H](/C(F)=C/CCS)OC1=O | Dose-dependent effect | – | – | – | – | – | – | – | – | – | –
12 | CCCCCCCC(=O)SCC/C=C/[C@H]1NC(=O)[C@H](C(C)C)NC(=O)[C@]2(C)CSC(=N2)c2csc(n2)CNC(=O)C1(F)F | – | > 10000 | > 10000 | > 10000 | > 10000 | – | – | – | – | – | –
13 | CC(C)[C@@H]1NC(=O)[C@]2(C)CSC(=N2)c2csc(n2)CNC(=O)C[C@@H](/C=C(\F)CCS)OC1=O | Dose-dependent effect | – | – | – | – | 19.7 | 2.46 | 0.41 | 0.46 | 3.2 | –
14 | CC(C)[C@@H]1NC(=O)[C@]2(C)CSC(=N2)c2csc(n2)CNC(=O)C[C@@H](/C(F)=C/CCS)NC1=O | Dose-dependent effect | – | – | – | – | 333 | 7.42 | 27.1 | 2.9 | 8.53 | –
15 | CCCCCCCC(=O)SCC/C=C/[C@@H]1CC(=O)NCc2nc(cs2)C2=N[C@@](C)(CS2)C(=O)N[C@@H](C(C)C)C(=O)O1 [LARGAZOLE] | Dose-dependent effect | 250 | 4750 | 460 | 44 to 110 | – | – | – | – | – | –
